Assay results taken from EP4741383A1, “COMPOUND AND USE THEREOF AS ANTI-CANCER DRUG” (Tyligand Bioscience (Shanghai) Limited, priority 2023, dated 2025).

The molecules below were run on MeWo (assay: CellTiter-Glo cell proliferation inhibition, MeWo). Details: Homo sapiens, MeWo, 72 h, MeWo cells, CellTiter-Glo.
Assay type: cell-based, human
Experimental: (§1) In this study, the CellTiter-Glo® Luminescent Cell Viability Assay kit from Promega was used to evaluate the inhibitory effects of the disclosed compounds on the proliferation of cell lines KYSE520 (a human esophageal squamous cell carcinoma cell line dependent on SHP2 for growth), MeWo (a human malignant melanoma cell line), and MV4-11 (an RTK-mutant human acute monocytic leukemia cell line).
Using essentially the same experimental materials, MeWo cells (ATCC, catalog #HTB-65) were treated similarly: when thawing the cells, the cryovial was rapidly shaken in a 37 °C water bath to thaw the cells within 1 minute. The thawed cell suspension was mixed with MEM/EBSS culture medium containing 10% FBS (HyClone, catalog #SH30024.01), centrifuged at 1000 rpm for 5 minutes, and the supernatant was discarded. The cell pellet was resuspended in 5 mL of complete culture medium (MEM/EBSS medium containing 10% FBS), placed in a cell culture flask with 25 cm^2 of bottom area, and cultured in a cell culture incubator at 37 °C, 95% humidity, and 5% CO2. Cell passaging was performed when the cell confluence reached approximately 80%. During cell passaging, the old culture medium was discarded, the cells were washed once with DPBS, and 1 mL of trypsin was added to digest the cells. When the cells dispersed into single cells and detached from the bottom of the cell culture flask, 3 mL of new complete culture medium was added to stop the digestion. After thoroughly mixing the cell suspension, 1/5 of the cell suspension was retained, 5 mL of new complete culture medium was added, and after thorough mixing, the cells were placed in a cell culture flask for further culture. Cell plating was performed when the cell confluence again reached approximately 80%. During cell plating, following the cell passaging method, 1/5 of the cell suspension was retained for further culture, and the remaining 4/5 of the cell suspension was placed in a 15 mL centrifuge tube. Cell viability was determined using the trypan blue exclusion method to ensure that cell viability was above 90%. A cell suspension with a density of 2.22 × 10^4 cells/mL was prepared using MEM/EBSS culture medium containing 5% FBS. 90 µL of the cell suspension was added to a 96-well cell culture plate, resulting in a cell density of 2000 viable cells/well in the cell culture plate. A control group without cells and without compounds, containing only complete culture medium (i.e., culture medium control), and a control group without compounds but containing cells (i.e., cell control) were set up. The cell plate was cultured overnight in the cell culture incubator. First, a 10 mM stock solution of the compound (Example compound and positive control compound 11a-1) in DMSO was serially diluted with DMSO at a 3-fold dilution, down to the 9th concentration. A 10th concentration containing only DMSO (without the compound) was also prepared as a control. Then, the DMSO solutions containing different concentrations of the compound were diluted 100-fold with complete culture medium, resulting in a 1% DMSO concentration in each solution. Finally, 10 µL of each solution was added to the corresponding wells of the cell culture plate, resulting in a starting compound concentration of 10 µM, with a 3-fold dilution between adjacent concentrations, and a 0.1% DMSO concentration in the cell culture plate. The cell plates were then incubated in a cell culture incubator for 72 hours.
(§2) For endpoint detection, CellTiter-Glo reagent (Promega, catalog number #G7573, CellTiter-Glo® Luminescent Cell Viability Assay Kit) was melt and each cell plate was moved to room temperature for equilibration for 30 minutes. 75 µL (KYSE520 cells) or 50 µL (MeWo cells and MV 4-11 cells) of CellTiter-Glo was added to each well of the corresponding cell plate. The plates were shaken on a track-mounted shaker for 2 minutes to fully lyse the cells. The cell plates were kept at room temperature for 8 minutes to stabilize the luminescence signal. […]

Row | Compound | IC50 [µM]
1 | O=C(Nc1ccc(-c2csc(CO)c2)cc1)C(=O)Nc1ccc(-c2cc3cc(F)c(-c4nnn[nH]4)cc3n2C2CCC2)cc1 [Example 1] | 0.032
2 | CC1(n2c(-c3ccc(NC(=O)C(=O)Nc4ccc(-c5cnn(C6COC6)c5)cc4)cc3)cc3cc(F)c(-c4nnn[nH]4)cc32)CC1 [Example 6] | 0.113
3 | CC1(n2c(-c3ccc(NC(=O)C(=O)Nc4ccc(-c5cnn(C6CCOCC6)c5)cc4)cc3)cc3cc(F)c(-c4nnn[nH]4)cc32)CC1 [Example 7] | 0.111
4 | Cn1c(-c2cccc(NC(=O)C(=O)Nc3ccc(-c4ccsc4)cc3)c2)c(I)c2cc(C(=O)O)c(O)cc21 [Example 11a-1, reference compound] | 3.1
5 | O=C(Nc1ccc(-c2cc3cc(F)c(-c4nnn[nH]4)cc3n2C2CCC2)cc1)C(=O)Nc1ccc(N2CCC(CO)C2)cc1 (stereo not shown) [Example 12] | 0.082
6 | O=C(Nc1ccc(-c2cc3cc(F)c(-c4nnn[nH]4)cc3n2C2CC2)cc1)C(=O)Nc1ccc(N2CCC3(CCOC3)CC2)cc1 [Example 69] | 0.093
7 | O=C(Nc1ccc(-c2ccsc2)cc1)C(=O)Nc1ccc(-c2cc3ccc(-c4nnn[nH]4)cc3n2C2CCC2)cc1 [Example 122] | 0.409
8 | Cn1cc(-c2ccc(NC(=O)C(=O)Nc3ccc(-c4cc5cc(F)c(-c6noc(=O)[nH]6)cc5n4C4CCC4)cc3)cc2)cn1 [Example 123] | 0.118
9 | Cn1cc(-c2ccc(NC(=O)C(=O)Nc3ccc(-c4cc5cc(F)c(-c6nnc(C(F)(F)F)[nH]6)cc5n4C4CCC4)cc3)cc2)cn1 [Example 124] | 1.55
10 | O=C(Nc1ccc(-c2ccsc2)cc1)C(=O)Nc1ccc(-c2oc3cc(F)c(-c4nnn[nH]4)cc3c2C2CCC2)cc1 [Example 130] | 0.162
11 | O=C(Nc1ccc(-c2ccsc2)cc1)C(=O)Nc1ccc(-c2cc3cc(F)c(-c4nnn[nH]4)nc3n2C2CCC2)cc1 [Example 132] | 0.291
12 | O=C(Nc1ccc(-c2ccsc2)cc1)C(=O)Nc1ccc(-c2sc3cc(F)c(-c4nnn[nH]4)cc3c2C2CCC2)cc1 [Example 133] | 0.686

Same assay, conditions: Homo sapiens; MeWo cells, 72 hours, CellTiter-Glo

Row | Compound | IC50 [µM]
13 | O=C(Nc1ccc(-c2oc3cc(F)c(-c4nnn[nH]4)cc3c2C2CCC2)cc1)C(=O)Nc1ccc(N2CCC3(CCOC3)CC2)cc1 [Example 125] | 0.764
14 | O=C(Nc1ccc(-c2ccsc2)cc1)C(=O)Nc1ccc(-c2cc3ccc(-c4nnn[nH]4)nc3n2C2CCC2)cc1 [Example 129] | 0.176
15 | O=C(Nc1ccc(-c2ccsc2)cc1)C(=O)Nc1ccc(-c2cc3cc(F)c(-c4nnn[nH]4)c(F)c3n2C2CCC2)cc1 [Example 134] | 0.27

Each molecule was assayed on MV4-11 (assay: CellTiter-Glo cell proliferation inhibition, MV4-11). Details: Homo sapiens; MV4-11 cells, 72 hours, CellTiter-Glo; read-out: IC50 (µM) M V4-11.
Assay type: cell-based, human
Excerpt: as §1
Using essentially the same experimental materials, MV4-11 cells (Nanjing Cobio Biotechnology Co., Ltd., Catalog #CBP60522) were treated similarly: when thawing the cells, the cryovial was rapidly shaken in a 37 °C water bath to thaw within 1 minute. The thawed cell suspension was mixed with IMDM culture medium containing 10% FBS (HyClone, Catalog #SH30228.01), centrifuged at 1000 rpm for 7 minutes, and the supernatant was discarded. The cell pellet was resuspended in 5 mL of complete culture medium (IMDM medium containing 10% FBS) placed in a cell culture flask with 25 cm^2 of bottom area, and cultured in a cell culture incubator at 37 °C, 95% humidity, and 5% CO2. Cell passaging was performed when the cell density reached approximately 10^6 cells/mL. During cell passaging, the old cell suspension was thoroughly mixed, 1/5 of the cell suspension was retained, and 4 mL of new complete culture medium was added. After thorough mixing, the cells were placed back in the cell culture incubator for further culture. Cell plating was performed when the cell density again reached approximately 10^6 cells/mL. During cell plating, following the cell passage method, 1/5 of the cell suspension was retained for continued culture, and the remaining 4/5 of the cell suspension was placed in a 15 mL centrifuge tube. Cell viability was determined using the trypan blue exclusion method to ensure that cell viability was above 90%. A cell suspension with a density of 1.11 × 10^5 viable cells/mL was prepared using complete culture medium. 90 µL of the cell suspension was added to a 96-well cell culture plate, resulting in a cell density of 10000 viable cells/well. A control group without cells and without compounds, containing only complete culture medium (i.e., culture medium control) and a control group without compounds but containing cells (i.e., cell control) were set up. The cell plate was incubated overnight in the cell culture incubator. First, a 10 mM stock solution of the compound (Example compound and positive control compound 11a-1) in DMSO was serially diluted with DMSO at a 3-fold dilution, down to the 9th concentrations. A 10th concentration containing only DMSO (without the compound) was also prepared as a control. Then, the DMSO solutions containing different concentrations of the compound were diluted 100-fold with complete culture medium, resulting in a DMSO concentration of 1% in each solution. Finally, 10 µL of each solution was added to the corresponding wells of a cell culture plate, resulting in an initial compound concentration of 10 µM, with a 3-fold dilution between adjacent concentrations, and a DMSO concentration of 0.1% in the cell culture plate. The cell plate was then incubated in a cell culture incubator for 72 hours.
as §2, with “signal. A multi-mode microplate reader (PerkinEImer, Envision 2105 Multimode plate Read) was used to full-wavelength scan the luminescence value of each well.” for “signal.”

Row | IC50 [µM] | Compound
16 | 5.13 | Cn1c(-c2cccc(NC(=O)C(=O)Nc3ccc(-c4ccsc4)cc3)c2)c(I)c2cc(C(=O)O)c(O)cc21 [Example 11a-1, reference compound]
17 | 0.262 | O=C(Nc1ccc(-c2cc3cc(F)c(-c4nnn[nH]4)cc3n2C2CCC2)cc1)C(=O)Nc1ccc(N2CCC(CO)C2)cc1 (stereo not shown) [Example 12]
18 | 0.155 | O=C(Nc1ccc(-c2cc3cc(F)c(-c4nnn[nH]4)cc3n2C2CCC2)cc1)C(=O)Nc1ccc(N2CCC(CCO)C2)cc1 (stereo not shown) [Example 14]
19 | 0.137 | CC1(CO)CCN(c2ccc(NC(=O)C(=O)Nc3ccc(-c4cc5cc(F)c(-c6nnn[nH]6)cc5n4C4CCC4)cc3)cc2)C1 (stereo not shown) [Example 16]
20 | 0.129 | CC1(n2c(-c3ccc(NC(=O)C(=O)Nc4ccc(N5CCC(CCO)CC5)cc4)cc3)cc3cc(F)c(-c4nnn[nH]4)cc32)CCC1 [Example 26]
21 | 0.13 | CC(O)C1CCN(c2ccc(NC(=O)C(=O)Nc3ccc(-c4cc5cc(F)c(-c6nnn[nH]6)cc5n4C4CCC4)cc3)cc2)CC1 (stereo not shown) [Example 29]
22 | 0.177 | O=C(Nc1ccc(-c2cc3cc(F)c(-c4nnn[nH]4)cc3n2C2CCC2)cc1)C(=O)Nc1ccc(N2CC3(CCCOC3)C2)cc1 [Example 55]
23 | 0.213 | O=C(Nc1ccc(-c2cc3cc(F)c(-c4nnn[nH]4)cc3n2C2CCC2)cc1)C(=O)Nc1ccc(N2CCC3(COC3)C2)cc1 [Example 59]
24 | 0.202 | O=C(Nc1ccc(-c2cc3cc(F)c(-c4nnn[nH]4)cc3n2C2CCC2)cc1)C(=O)Nc1ccc(N2CCC3(CCCOC3)C2)cc1 (stereo not shown) [Example 62]
25 | 0.129 | O=C(Nc1ccc(-c2cc3cc(F)c(-c4nnn[nH]4)cc3n2C2CCC2)cc1)C(=O)Nc1ccc(N2CCC3(CCCOC3)CC2)cc1 [Example 74]
26 | 0.133 | CC1(O)CCC2(CC1)CN(c1ccc(NC(=O)C(=O)Nc3ccc(-c4cc5cc(F)c(-c6nnn[nH]6)cc5n4C4CCC4)cc3)cc1)C2 [Example 83]
27 | 0.168 | CC1(O)CC2(CCN(c3ccc(NC(=O)C(=O)Nc4ccc(-c5cc6cc(F)c(-c7nnn[nH]7)cc6n5C5(C)CCC5)cc4)cc3)CC2)C1 [Example 95]
28 | 0.329 | CC1(n2c(-c3ccc(NC(=O)C(=O)Nc4ccc(N5CCC6(CCC(O)C6)CC5)cc4)cc3)cc3cc(F)c(-c4nnn[nH]4)cc32)CCC1 (stereo not shown) [Example 101]
29 | 0.124 | COC1CC(n2c(-c3ccc(NC(=O)C(=O)Nc4ccc(N5CCC6(CCC(O)C6)CC5)cc4)cc3)cc3cc(F)c(-c4nnn[nH]4)cc32)C1 (stereo not shown) [Example 103]
30 | 0.243 | CC1(n2c(-c3ccc(NC(=O)C(=O)Nc4ccc(N5CCC6(CCC(O)CC6)CC5)cc4)cc3)cc3cc(F)c(-c4nnn[nH]4)cc32)CCC1 [Example 109]
31 | 0.127 | CC1(O)CC2CN(c3ccc(NC(=O)C(=O)Nc4ccc(-c5cc6cc(F)c(-c7nnn[nH]7)cc6n5C5CCC5)cc4)cc3)CC2C1 (stereo not shown) [Example 117]
32 | 0.131 | CC1(O)CC2CN(c3ccc(NC(=O)C(=O)Nc4ccc(-c5cc6cc(F)c(-c7nnn[nH]7)cc6n5C5(C)CCC5)cc4)cc3)CC2C1 (stereo not shown) [Example 118]

The remaining lines, values behind:

Row | Compound | IC50 [µM]
33 | O=C(Nc1ccc(-c2csc(CO)c2)cc1)C(=O)Nc1ccc(-c2cc3cc(F)c(-c4nnn[nH]4)cc3n2C2CCC2)cc1 [Example 1] | 0.097
34 | N#CCc1cc(-c2ccc(NC(=O)C(=O)Nc3ccc(-c4cc5cc(F)c(-c6nnn[nH]6)cc5n4C4CCC4)cc3)cc2)cs1 [Example 2] | 0.216
35 | CC1(n2c(-c3ccc(NC(=O)C(=O)Nc4ccc(-c5cnn(C6COC6)c5)cc4)cc3)cc3cc(F)c(-c4nnn[nH]4)cc32)CC1 [Example 6] | 0.358
36 | CC1(n2c(-c3ccc(NC(=O)C(=O)Nc4ccc(-c5cnn(C6CCOCC6)c5)cc4)cc3)cc3cc(F)c(-c4nnn[nH]4)cc32)CC1 [Example 7] | 0.254
37 | CC1(O)CCC2(CCN(c3ccc(NC(=O)C(=O)Nc4ccc(-c5cc6cc(F)c(-c7nnn[nH]7)cc6n5C5(C)CCC5)cc4)cc3)CC2)CC1 [Example 111] | 0.122
